Measurements as given in ChEMBL document CHEMBL4765443, “Covalent and noncovalent constraints yield a figure eight-like conformation of a peptide inhibiting the menin-MLL interaction” (Eur J Med Chem, 2020).
Starred links: 1 amine or outer side, 2 acyl side, 3 side chain; linkers in the order of their positions; H or OH if unused. Positions of bridges follow the written chain, without caps; N, C: chain ends. Non-standard residues stand in square brackets, D forms with d. Residues, ends and D or L forms follow the SMILES beside them. Hag = O=C([C@H](CCC=[*:3])N[*:1])[*:2]; Phe(3-F) = N[C@@H](Cc1cccc(F)c1)C(=O)O; AllylGly = C=CC[C@H](N)C(=O)O; Orn = NCCC[C@H](N)C(=O)O; Ac4c = NC1(C(=O)O)CCC1

These compounds were tested against T1, Menin/Histone-lysine N-methyltransferase MLL (Homo sapiens, UniProt O00255) (assay: Inhibition of Menin-MLL protein-protein interaction (unknown origin) preincubated for 1 hr in presence of FLSN-MLL4-43 peptide followed by compound addition and measured after 1 hr by fluorescence polarization assay).
T1 sequence (O00255 whole entry): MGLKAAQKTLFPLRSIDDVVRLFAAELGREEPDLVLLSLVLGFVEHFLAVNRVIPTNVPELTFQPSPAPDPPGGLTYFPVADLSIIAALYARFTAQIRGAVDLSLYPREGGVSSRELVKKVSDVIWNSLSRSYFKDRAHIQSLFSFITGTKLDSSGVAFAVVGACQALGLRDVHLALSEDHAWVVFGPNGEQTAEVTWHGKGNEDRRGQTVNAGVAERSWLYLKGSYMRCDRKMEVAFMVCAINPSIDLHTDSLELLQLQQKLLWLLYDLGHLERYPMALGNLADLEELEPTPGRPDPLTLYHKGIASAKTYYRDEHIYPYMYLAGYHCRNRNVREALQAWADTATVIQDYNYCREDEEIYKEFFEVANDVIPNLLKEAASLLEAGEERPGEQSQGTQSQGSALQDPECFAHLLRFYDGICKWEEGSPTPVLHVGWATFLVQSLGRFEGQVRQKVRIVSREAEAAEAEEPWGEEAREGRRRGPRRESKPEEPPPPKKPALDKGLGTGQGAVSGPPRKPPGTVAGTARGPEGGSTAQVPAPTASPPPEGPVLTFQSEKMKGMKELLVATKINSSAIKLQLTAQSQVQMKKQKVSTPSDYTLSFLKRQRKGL
T1 sequence (Q03164 1-2718 partner limits assumed): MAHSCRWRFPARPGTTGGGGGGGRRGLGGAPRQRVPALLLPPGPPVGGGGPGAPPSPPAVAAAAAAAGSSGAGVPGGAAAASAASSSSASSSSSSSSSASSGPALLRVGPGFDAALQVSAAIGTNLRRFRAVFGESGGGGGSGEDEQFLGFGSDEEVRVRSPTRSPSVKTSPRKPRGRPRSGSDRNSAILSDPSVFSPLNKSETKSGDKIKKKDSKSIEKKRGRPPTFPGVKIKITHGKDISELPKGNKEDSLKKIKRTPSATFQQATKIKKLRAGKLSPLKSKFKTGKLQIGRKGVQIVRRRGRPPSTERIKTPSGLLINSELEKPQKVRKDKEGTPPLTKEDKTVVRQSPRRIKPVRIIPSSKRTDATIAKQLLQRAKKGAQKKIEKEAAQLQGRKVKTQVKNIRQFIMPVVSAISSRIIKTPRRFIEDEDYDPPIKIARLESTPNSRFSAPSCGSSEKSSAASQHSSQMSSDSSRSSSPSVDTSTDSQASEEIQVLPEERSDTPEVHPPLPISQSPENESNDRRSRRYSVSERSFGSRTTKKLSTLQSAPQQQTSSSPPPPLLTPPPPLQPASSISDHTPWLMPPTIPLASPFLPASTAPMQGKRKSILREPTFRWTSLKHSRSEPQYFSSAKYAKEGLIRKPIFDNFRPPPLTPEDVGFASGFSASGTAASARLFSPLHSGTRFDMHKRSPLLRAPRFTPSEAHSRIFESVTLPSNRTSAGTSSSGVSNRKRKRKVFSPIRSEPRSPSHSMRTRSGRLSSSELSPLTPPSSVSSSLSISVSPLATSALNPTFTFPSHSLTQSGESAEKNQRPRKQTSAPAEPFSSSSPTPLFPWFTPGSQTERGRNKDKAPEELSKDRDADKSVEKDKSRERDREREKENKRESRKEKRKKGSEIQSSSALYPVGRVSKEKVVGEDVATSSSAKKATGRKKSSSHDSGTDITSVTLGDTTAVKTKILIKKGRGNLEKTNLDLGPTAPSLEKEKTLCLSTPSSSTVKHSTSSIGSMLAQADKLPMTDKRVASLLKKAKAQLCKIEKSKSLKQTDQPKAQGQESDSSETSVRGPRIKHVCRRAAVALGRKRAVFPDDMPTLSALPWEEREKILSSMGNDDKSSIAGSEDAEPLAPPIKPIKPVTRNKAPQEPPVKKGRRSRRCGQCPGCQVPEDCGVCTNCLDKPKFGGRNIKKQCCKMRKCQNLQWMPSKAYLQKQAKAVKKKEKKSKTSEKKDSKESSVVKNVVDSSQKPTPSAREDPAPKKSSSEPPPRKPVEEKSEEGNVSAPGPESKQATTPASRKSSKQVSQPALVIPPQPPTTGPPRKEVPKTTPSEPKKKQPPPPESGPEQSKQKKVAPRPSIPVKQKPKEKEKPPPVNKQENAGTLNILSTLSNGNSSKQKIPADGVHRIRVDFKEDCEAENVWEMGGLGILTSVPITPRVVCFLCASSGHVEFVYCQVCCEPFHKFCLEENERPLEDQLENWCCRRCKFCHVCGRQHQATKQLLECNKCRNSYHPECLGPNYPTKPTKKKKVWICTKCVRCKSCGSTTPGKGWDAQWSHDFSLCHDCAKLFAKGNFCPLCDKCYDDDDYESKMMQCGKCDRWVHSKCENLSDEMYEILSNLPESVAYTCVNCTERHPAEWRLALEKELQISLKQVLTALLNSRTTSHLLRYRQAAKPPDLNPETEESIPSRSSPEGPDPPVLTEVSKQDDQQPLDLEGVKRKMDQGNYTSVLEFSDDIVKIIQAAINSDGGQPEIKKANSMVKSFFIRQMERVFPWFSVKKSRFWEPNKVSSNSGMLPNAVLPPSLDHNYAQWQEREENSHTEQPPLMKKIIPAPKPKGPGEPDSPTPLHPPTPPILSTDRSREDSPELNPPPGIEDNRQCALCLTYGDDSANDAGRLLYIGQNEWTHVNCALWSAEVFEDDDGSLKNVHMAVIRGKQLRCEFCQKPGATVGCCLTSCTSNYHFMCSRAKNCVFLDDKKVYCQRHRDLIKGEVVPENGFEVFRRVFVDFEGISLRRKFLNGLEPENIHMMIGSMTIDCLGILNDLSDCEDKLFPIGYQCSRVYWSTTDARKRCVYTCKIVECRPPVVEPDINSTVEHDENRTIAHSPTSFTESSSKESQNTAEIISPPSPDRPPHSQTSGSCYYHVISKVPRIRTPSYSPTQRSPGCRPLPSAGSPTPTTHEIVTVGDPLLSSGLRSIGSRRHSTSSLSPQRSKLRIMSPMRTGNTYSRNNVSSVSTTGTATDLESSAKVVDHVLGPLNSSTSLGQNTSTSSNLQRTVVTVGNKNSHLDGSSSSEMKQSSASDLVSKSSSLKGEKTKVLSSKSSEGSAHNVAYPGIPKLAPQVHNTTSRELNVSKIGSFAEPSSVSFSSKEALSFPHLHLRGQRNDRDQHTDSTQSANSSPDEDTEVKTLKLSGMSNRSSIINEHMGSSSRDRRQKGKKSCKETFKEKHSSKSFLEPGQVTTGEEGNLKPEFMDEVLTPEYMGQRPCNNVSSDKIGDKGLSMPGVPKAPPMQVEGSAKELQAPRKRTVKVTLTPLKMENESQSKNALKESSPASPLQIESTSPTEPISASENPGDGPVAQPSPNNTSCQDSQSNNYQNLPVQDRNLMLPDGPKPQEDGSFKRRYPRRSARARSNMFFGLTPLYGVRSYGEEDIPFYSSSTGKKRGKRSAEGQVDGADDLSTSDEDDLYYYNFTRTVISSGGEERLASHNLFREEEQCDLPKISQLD
T1 sequence (Q03164 2719-3969 partner limits assumed): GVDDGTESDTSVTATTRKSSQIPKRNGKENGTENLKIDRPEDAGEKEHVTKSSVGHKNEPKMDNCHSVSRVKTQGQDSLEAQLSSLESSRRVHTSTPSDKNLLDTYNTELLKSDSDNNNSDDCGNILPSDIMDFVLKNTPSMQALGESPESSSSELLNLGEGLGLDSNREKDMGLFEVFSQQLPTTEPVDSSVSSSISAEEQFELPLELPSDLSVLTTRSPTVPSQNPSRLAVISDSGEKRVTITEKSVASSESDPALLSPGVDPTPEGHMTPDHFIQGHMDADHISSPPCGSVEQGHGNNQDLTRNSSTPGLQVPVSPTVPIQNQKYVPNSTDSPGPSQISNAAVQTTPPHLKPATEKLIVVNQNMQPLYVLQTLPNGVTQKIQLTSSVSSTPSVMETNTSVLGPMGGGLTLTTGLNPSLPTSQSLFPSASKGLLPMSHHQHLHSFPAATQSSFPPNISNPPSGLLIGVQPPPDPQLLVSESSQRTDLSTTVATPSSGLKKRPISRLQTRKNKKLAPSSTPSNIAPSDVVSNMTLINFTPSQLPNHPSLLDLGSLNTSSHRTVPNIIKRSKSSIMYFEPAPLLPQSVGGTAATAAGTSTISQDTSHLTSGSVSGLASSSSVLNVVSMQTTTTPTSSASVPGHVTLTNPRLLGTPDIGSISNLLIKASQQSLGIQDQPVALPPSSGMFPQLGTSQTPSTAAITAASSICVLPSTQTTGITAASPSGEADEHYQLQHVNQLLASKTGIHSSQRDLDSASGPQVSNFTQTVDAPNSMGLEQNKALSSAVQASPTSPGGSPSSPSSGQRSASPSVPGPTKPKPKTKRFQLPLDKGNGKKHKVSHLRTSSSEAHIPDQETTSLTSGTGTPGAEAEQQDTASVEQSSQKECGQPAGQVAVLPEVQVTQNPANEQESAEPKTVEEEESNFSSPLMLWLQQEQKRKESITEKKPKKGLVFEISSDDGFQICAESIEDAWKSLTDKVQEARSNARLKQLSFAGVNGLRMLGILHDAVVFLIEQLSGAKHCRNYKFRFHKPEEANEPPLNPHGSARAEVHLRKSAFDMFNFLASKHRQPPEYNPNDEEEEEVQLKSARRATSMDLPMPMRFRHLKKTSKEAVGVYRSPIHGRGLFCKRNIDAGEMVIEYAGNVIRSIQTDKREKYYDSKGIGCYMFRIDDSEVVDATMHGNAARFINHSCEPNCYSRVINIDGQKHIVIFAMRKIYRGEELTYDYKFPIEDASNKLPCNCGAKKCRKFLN

Compound | IC50 [nM]
CC(=O)N[C@@H](C)C(=O)N[C@@H](CCCNC(=N)N)C(=O)N[C@@H](Cc1c[nH]c2ccccc12)C(=O)N[C@H]1CCCC[C@@H](C(=O)N2CCC[C@H]2C(=O)N[C@@H](CCCN)C(=O)N[C@@H](CCCNC(=N)N)C(N)=O)NC(=O)C2(CCC2)NC(=O)[C@@H]2CCCN2C(=O)[C@H](Cc2cccc(F)c2)NC1=O | 14
CC(=O)N[C@@H](CO)C(=O)N[C@@H](C)C(=O)N[C@@H](CCCNC(=N)N)C(=O)N[C@@H](Cc1c[nH]c2ccccc12)C(=O)N[C@H]1CCCC[C@@H](C(=O)N2CCC[C@H]2C(=O)N[C@@H](CCCN)C(N)=O)NC(=O)C2(CCC2)NC(=O)[C@@H]2CCCN2C(=O)[C@H](Cc2cccc(F)c2)NC1=O | 569

Each compound was assayed against T1, Menin/Histone-lysine N-methyltransferase MLL (assay: Inhibition of Menin-MLL protein-protein interaction (unknown origin) preincubated for 1 hr in presence of FLSN-MBM1 peptide followed by compound addition and measured after 1 hr by fluorescence polarization assay).

Compound | IC50 [nM]
CC(=O)N[C@@H](CO)C(=O)N[C@@H](C)C(=O)N[C@@H](CCCNC(=N)N)C(=O)N[C@@H](Cc1c[nH]c2ccccc12)C(=O)N[C@H]1CCCCCC[C@@H](C(=O)N2CCC[C@H]2C(=O)N[C@@H](CCCNC(=N)N)C(N)=O)NC(=O)[C@H](C)NC(=O)[C@@H]2CCCN2C(=O)[C@H](Cc2ccccc2)NC1=O | 660
CC(=O)N[C@@H](CO)C(=O)N[C@@H](C)C(=O)N[C@@H](CCCNC(=N)N)C(=O)N[C@@H](Cc1c[nH]c2ccccc12)C(=O)N[C@H]1CCCC[C@@H](C(=O)N2CCC[C@H]2C(=O)N[C@@H](CCCNC(=N)N)C(N)=O)NC(=O)[C@H](C)NC(=O)[C@@H]2CCCN2C(=O)[C@H](Cc2ccccc2)NC1=O | 122
CC(=O)N[C@@H](C)C(=O)N[C@@H](CCCNC(=N)N)C(=O)N[C@@H](Cc1c[nH]c2ccccc12)C(=O)N[C@H]1C/C=C\C[C@@H](C(=O)N2CCC[C@H]2C(=O)N[C@@H](CCCNC(=N)N)C(N)=O)NC(=O)[C@H](C)NC(=O)[C@@H]2CCCN2C(=O)[C@H](Cc2ccccc2)NC1=O (Ac-ARW[AllylGly]FPA[AllylGly]PR-NH2; staple (Z) 4-8) | 151
CC(=O)N[C@@H](CCCNC(=N)N)C(=O)N[C@@H](Cc1c[nH]c2ccccc12)C(=O)N[C@H]1C/C=C\C[C@@H](C(=O)N2CCC[C@H]2C(=O)N[C@@H](CCCNC(=N)N)C(N)=O)NC(=O)[C@H](C)NC(=O)[C@@H]2CCCN2C(=O)[C@H](Cc2ccccc2)NC1=O (Ac-RW[AllylGly]FPA[AllylGly]PR-NH2; staple (Z) 3-7) | 372
CC(=O)N[C@@H](CO)C(=O)N[C@@H](C)C(=O)N[C@@H](CCCNC(=N)N)C(=O)N[C@@H](Cc1c[nH]c2ccccc12)C(=O)N[C@H]1C/C=C\C[C@@H](C(=O)N2CCC[C@H]2C(N)=O)NC(=O)[C@H](C)NC(=O)[C@@H]2CCCN2C(=O)[C@H](Cc2ccccc2)NC1=O (Ac-SARW[AllylGly]FPA[AllylGly]P-NH2; staple (Z) 5-9) | 6800
CC(=O)N[C@@H](CO)C(=O)N[C@@H](C)C(=O)N[C@@H](CCCNC(=N)N)C(=O)N[C@@H](Cc1c[nH]c2ccccc12)C(=O)N[C@H]1C/C=C\C[C@@H](C(=O)N2CCC[C@H]2C(=O)NCC(=O)N[C@H](C(N)=O)[C@@H](C)O)NC(=O)[C@H](C)NC(=O)[C@@H]2CCCN2C(=O)[C@H](Cc2ccccc2)NC1=O (Ac-SARW[AllylGly]FPA[AllylGly]PGT-NH2; staple (Z) 5-9) | 41000
CC(=O)N[C@@H](CO)C(=O)N[C@@H](C)C(=O)N[C@@H](CCCNC(=N)N)C(=O)N[C@@H](Cc1c[nH]c2ccccc12)C(=O)N[C@H]1C/C=C\C[C@@H](C(=O)N2CCC[C@H]2C(=O)N[C@@H](CCCCN)C(N)=O)NC(=O)[C@H](C)NC(=O)[C@@H]2CCCN2C(=O)[C@H](Cc2ccccc2)NC1=O (Ac-SARW[AllylGly]FPA[AllylGly]PK-NH2; staple (Z) 5-9) | 1390
CC(=O)N[C@@H](CO)C(=O)N[C@@H](C)C(=O)N[C@@H](CCCNC(=N)N)C(=O)N[C@@H](Cc1c[nH]c2ccccc12)C(=O)N[C@H]1C/C=C\C[C@@H](C(=O)N2CCC[C@H]2C(=O)N[C@@H](CCCNC(=N)N)C(N)=O)NC(=O)[C@H](C)NC(=O)[C@@H]2CCCN2C(=O)[C@H](Cc2ccccc2)NC1=O (Ac-SARW[AllylGly]FPA[AllylGly]PR-NH2; staple (Z) 5-9) | 770
CC(=O)N[C@@H](CO)C(=O)N[C@@H](C)C(=O)N[C@@H](CCCNC(=N)N)C(=O)N[C@@H](Cc1c[nH]c2ccccc12)C(=O)N[C@H]1C/C=C\C[C@@H](C(=O)N2CCC[C@H]2C(=O)N[C@@H](CCCNC(=N)N)C(=O)N[C@H](C(N)=O)[C@@H](C)O)NC(=O)[C@H](C)NC(=O)[C@@H]2CCCN2C(=O)[C@H](Cc2ccccc2)NC1=O (Ac-SARW[AllylGly]FPA[AllylGly]PRT-NH2; staple (Z) 5-9) | 1800
CC(=O)N[C@@H](CO)C(=O)N[C@@H](C)C(=O)N[C@@H](CCCNC(=N)N)C(=O)N[C@@H](Cc1c[nH]c2ccccc12)C(=O)N[C@H]1C/C=C\C[C@@H](C(=O)N2CCC[C@H]2C(=O)N[C@@H](CCCN)C(N)=O)NC(=O)[C@H](C)NC(=O)[C@@H]2CCCN2C(=O)[C@H](Cc2ccccc2)NC1=O (Ac-SARW[AllylGly]FPA[AllylGly]P[Orn]-NH2; staple (Z) 5-9) | 142
CC(=O)N[C@@H](CO)C(=O)N[C@@H](C)C(=O)N[C@@H](CCCNC(=N)N)C(=O)N[C@@H](Cc1c[nH]c2ccccc12)C(=O)N[C@H]1C/C=C\CC[C@@H](C(=O)N2CCC[C@H]2C(=O)N[C@@H](CCCNC(=N)N)C(N)=O)NC(=O)[C@H](C)NC(=O)[C@@H]2CCCN2C(=O)[C@H](Cc2ccccc2)NC1=O (Ac-SARW[AllylGly]FPA[Hag]PR-NH2; staple (Z) 5-9) | 3000
CC(=O)N[C@@H](CO)C(=O)N[C@@H](C)C(=O)N[C@@H](CCCNC(=N)N)C(=O)N[C@@H](Cc1c[nH]c2ccccc12)C(=O)N[C@H]1C/C=C\C[C@@H](C(=O)N2CCC[C@H]2C(=O)N[C@@H](CCCNC(=N)N)C(N)=O)NC(=O)C2(CCC2)NC(=O)[C@@H]2CCCN2C(=O)[C@H](Cc2ccccc2)NC1=O (Ac-SARW[AllylGly]FP[Ac4c][AllylGly]PR-NH2; staple (Z) 5-9) | 83
CC(=O)N[C@@H](CO)C(=O)N[C@@H](C)C(=O)N[C@@H](CCCNC(=N)N)C(=O)N[C@@H](Cc1c[nH]c2ccccc12)C(=O)N[C@H]1C/C=C\C[C@@H](C(=O)N2CCC[C@H]2C(=O)N[C@@H](CCCNC(=N)N)C(N)=O)NC(=O)[C@H](C)NC(=O)[C@@H]2CCCN2C(=O)[C@H](Cc2cccc(F)c2)NC1=O (Ac-SARW[AllylGly][Phe(3-F)]PA[AllylGly]PR-NH2; staple (Z) 5-9) | 281
CC(=O)N[C@@H](CO)C(=O)N[C@@H](C)C(=O)N[C@@H](CCCNC(=N)N)C(=O)N[C@@H](Cc1c[nH]c2ccccc12)C(=O)N[C@H]1CC/C=C\CC[C@@H](C(=O)N2CCC[C@H]2C(=O)N[C@@H](CCCNC(=N)N)C(N)=O)NC(=O)[C@H](C)NC(=O)[C@@H]2CCCN2C(=O)[C@H](Cc2ccccc2)NC1=O (Ac-SARW[Hag]FPA[Hag]PR-NH2; staple (Z) 5-9) | 1100
CC(=O)N[C@@H](Cc1c[nH]c2ccccc12)C(=O)N[C@H]1C/C=C\C[C@@H](C(=O)N2CCC[C@H]2C(=O)N[C@@H](CCCNC(=N)N)C(N)=O)NC(=O)[C@H](C)NC(=O)[C@@H]2CCCN2C(=O)[C@H](Cc2ccccc2)NC1=O (Ac-W[AllylGly]FPA[AllylGly]PR-NH2; staple (Z) 2-6) | 77700
Ac-SARWAFPAAP-NH2 | 19000
Ac-SARWAFPAAPGT-NH2 | 61300
Ac-SARWAFPAAPRT-NH2 | 1700
Ac-SARWAFPAGPR-NH2 | 1300
